Results published in US20050064470A1, “High throughput screening methods for identifying RNA binding compounds” (priority 2003, published 2005).

How the values were obtained:
wild-type TAR RNA = test: Fluorescence polarization anisotropy (FPA) binding to fluorescein-labeled wild-type TAR RNA; design: species or system HIV-1; details: for affinity for TAR RNA (in words) / Kd / specificity for wild-type TAR over bulgeless TAR (in words): FPA; for Kd: 20 mM KCl, fluorescein-tagged wild-type TAR RNA, room temperature, read-out: Kd wt TAR; for specificity for wild-type TAR over bulgeless TAR (in words): wild-type vs bulge-deleted TAR; for Binding Specificity (Kd (mutTAR)/Kd (wtTAR)): ratio of Kd for bulge-deleted TAR to Kd for wild-type TAR, in text as fold decrease of affinity
Experimental: (§1) β-Peptide and mutant β-peptide binding affinities to TAR RNA were measured by fluorescence anisotropy method on a PTI (Photon Technology International) fluorescence spectrophotometer. A T-format setup based on two emission channels was used. The intensities of the parallel and perpendicular components simultaneously were obtained in one measurement using two separate detectors. The excitation side is a motorized Glan-Thompson polarizer and emission sides are two film polarizers placed in vertical and horizontal orientation, respectively. The anisotropy can be calculated from equation 1, [formula] • where III and I⊥ are fluorescence intensities observed when the emission polarizer is oriented parallel and perpendicular to the direction of the polarized excitation, respectively.
(§2) The fluorescein-labeled TAR RNA (F-TAR, either wt TAR or bulge-less TAR, see FIG. 1) was excited at 490 nm and two polarized emissions were monitored at 512 nm. The slits were set at 8 nm for both excitation and emission light. The integration time was 20 seconds. All data were measured in a Sub-Micro cuvette (Starna Cell, Inc.) with a starting volume of 160 μL. Each addition of β-peptide/mutant β-peptide was followed by one-minute equilibration before the fluorescence signal was recorded. All experiments were done at room temperature and in a TKT buffer (TKT: 50 mM Tris-HCl, pH=7.4, 20 mM KCl and 0.02% Tween20). The initial concentration of F-TAR was around 25 nM. The stock concentration of β-peptide/mutant β-peptide for titration was 2 μM. The experiment was repeated three times independently. For every single point, five measurements were made and their average anisotropy value was used for calculation of the KD.
(§3) The binding dissociation constant (KD) is determined by fitting the plot of anisotropy of F-TAR versus the concentration of the β-peptide using equation 3, [formula] • where A is the relative fluorescence anisotropy of dye-labeled TAR RNA. The capacity for binding, Cap, is the maximum binding ability of a small molecule. C is the total concentration of β-peptide added. a is a correction factor.

[1] = biological target: bulge-deleted (mut) TAR RNA; test: Fluorescence polarization anisotropy (FPA) binding to fluorescein-labeled bulge-deleted TAR RNA; design: species or system HIV-1; details: for Kd: FPA, 20 mM KCl, fluorescein-tagged bulge-deleted TAR RNA, room temperature
Experimental: as §1, §2, §3

Substance: β-peptide in which all arginine side chains have been replaced by lysine side chains (YGKKKKKQKKK; SEQ ID NO:2) [mut β-peptide 2]
- affinity for TAR RNA (in words) (wild-type TAR RNA): high affinity
- Kd (wild-type TAR RNA): 16 ± 2 nM
- specificity for wild-type TAR over bulgeless TAR (in words) (wild-type TAR RNA): less specificity
- Binding Specificity (Kd (mutTAR)/Kd (wtTAR)) (wild-type TAR RNA): 2
- Kd [1]: 33 ± 2 nM

Substance: β-amino acid oligomer (β-peptide) analogue of Tat 47-57 (YGRKKRRQRRR, SEQ ID NO:1) [wt β-peptide 1]
- affinity for TAR RNA (in words) (wild-type TAR RNA): nanomolar affinity
- Kd (wild-type TAR RNA): 28 ± 4 nM
- specificity for wild-type TAR over bulgeless TAR (in words) (wild-type TAR RNA): enhanced specificity
- affinity for wild-type TAR lower than that of α-peptide 3 (wild-type TAR RNA; compared to α-peptide 3): roughly 15 fold
- Binding Specificity (Kd (mutTAR)/Kd (wtTAR)) (wild-type TAR RNA): 10
- Binding Specificity (Kd (mutTAR)/Kd (wtTAR)) (wild-type TAR RNA; listed as β-peptide 1): about 10
- dissociation constant ratio (Krel) relative to α-peptide 3 (wild-type TAR RNA; value above 1.0 denotes stronger binding of the analogue relative to the native peptide): 0.072
- Kd [1]: 281 ± 68 nM
- affinity for bulgeless TAR reduced compared to α-peptide 3 ([1]; compared to α-peptide 3): more than two orders of magnitude

Substance: N-Tyr-Gly-Arg-Lys-Lys-Arg-Arg-Gln-Arg-Arg-Arg [α-TatR 3, reference compound]
- Kd (wild-type TAR RNA): 1.8 ± 0.5 nM
- specificity for wild-type TAR over bulgeless TAR (in words) (wild-type TAR RNA): little specificity
- Binding Specificity (Kd (mutTAR)/Kd (wtTAR)) (wild-type TAR RNA): 1
- Kd [1]: 1.1 ± 0.2 nM
